# PMC11860126, “X-Ray Irradiation Induces Oxidative Stress and Upregulates Intestinal Nrf2-Mrp2 Pathway, Leading to Decreased Intestinal Absorption of Valsartan” (Pharmaceutics, 2025)
# Like-named read-outs stand apart in the source and are kept apart here.
# Key:
# [1] = design: method as in PMID 28438473, PMID 22204725, PMID 27749456; settings: clinical studies; cited from earlier work
# [2] = cited from earlier work
# [3] = design: method as in PMID 28507434; settings: cited from earlier work
# [4] = VAL urinary and fecal excretion assay (metabolic cages); settings: rats, 10 mg/kg by gavage
# Protocol: Male Sprague Dawley (SD) rats (weight 200 ± 20 g) were purchased from Beijing Vital River Laboratory Animal Co., LTD. […] The rats were fed a maintenance diet and had free access to water. All rats were adaptively fed for three days before the experiment and randomly divided into a control group (A) and irradiation group (B). There were 6 rats in group A and B in each study. […] The samples collected were processed and then stored at −80 °C until analysis.
# For the VAL urinary and fecal excretion assay, six rats in each group, A and B, were randomly assigned to metabolic cages and administered valsartan (10 mg/kg) via gavage. […] The resulting supernatant was collected as the analytical samples.
# The excretion of valsartan was calculated by the concentration and sample volume (or weight), and the fractional excretion of valsartan and the cumulative excretion fraction of valsartan in each time period were obtained through comparison with the corresponding dose administered to the rat.
# [5] = In vivo pharmacokinetics of valsartan in rat plasma, with or without abdominal X-ray irradiation; design: species or system Sprague Dawley (SD) rats; settings: for AUC(0-inf) / Cmax / AUC(0-t) / MRT last / Tmax / half-life: male, Sprague-Dawley, rat, plasma, po, 10 mg/kg; for AUC(0-t): read-out: AUC0–24h; for MRT last: read-out: MRT0–24h; for half-life / t1/2: valsartan 10 mg/kg by gavage, Mean ± SD, n = 6
# Protocol: Valsartan was administered by gavage (10 mg/kg) after forming a homogeneous suspension (2 mg/mL) with 1% CMC-Na by grinding and stirring. Before and after administration (0.083, 0.25, 0.5, 1, 2, 4, 6, 8, 12, and 24 h), the rats in group A (n = 6) and group B (n = 6) were anesthetized with isoflurane. Blood samples were collected by the orbital blood sampling method, and whole blood was collected by blood collection tubes coated with heparin sodium. Plasma samples were obtained by centrifugation at 16,260× g for 10 min. Quantitative analysis of LC-MS/MS results was performed using Analyst 1.6.3 program. The pharmacokinetic parameters were calculated using the WinNonlin 8.3 program. SPSS Statistic 20.0 software was used for statistical analysis. One-way ANOVA was used for comparison among multiple groups, and p < 0.05 was considered statistically significant. GraphPad Prism 8.0.2 software was used for generating figures.
# [6] = VAL bile secretion assay in bile duct cannulated rats; assay type: in vivo, Sprague Dawley (SD) rats; settings: 10 mg/kg by gavage
# From the text: For the VAL bile secretion assay, six rats in each group, A and B, underwent bile duct cannulation prior to administration. After anesthesia, the abdominal cavity of the rats was opened, followed by separation and ligation of the distal end of the common bile duct. A small opening was made at the front end of the ligation to insert a catheter, which was then ligated and fixed before suturing the abdominal cavity. Bile was collected through a catheter. The rats were maintained under anesthesia with intraperitoneal injection of normal saline and glucose to ensure stable vital signs. Following surgery, valsartan (10 mg/kg) was administered via gavage, and bile samples were collected at different time points post-administration. The collected bile samples were mixed with 50% methanol–water (ratio 1:9), centrifuged to obtain the supernatant for analysis.
# [7] = Ex vivo inverted intestinal sac absorption study; assay type: in vitro ADME, Sprague Dawley (SD) rats; settings: for concentration of valsartan in the intestinal sac at the final time point: KRB buffer 37 °C containing 10 mM VAL, n = 6
# Protocol: Six rats in groups A and B were anesthetized with isoflurane, followed by the opening of the abdominal cavity to separate a 10 cm segment of the jejunum. The distal end of the jejunal segment was ligated in Krebs–Ringer Solution (KRB), and the resulting intestinal sac was turned inside out from the proximal end to form an inverted intestinal sac. Subsequently, 1 mL of KRB buffer at 37 °C was added to the inverted intestinal sac, which was then equilibrated in oxygen-saturated KRB buffer (37 °C) for 5 min. The flipped intestinal sac was transferred to oxygen-saturated KRB buffer (37 °C) containing 10 mM VAL, initiating the timing process. At different time points, 50 μL of solution from the flipped intestinal sac was aspirated and supplemented with an equal volume (50 μL) of blank KRB buffer.
# [8] = 10 mg/kg by gavage, Control group
# [9] = IR-5 Gy vs control, 10 mg/kg by gavage, p < 0.05
# [10] = IR-5 Gy (abdominal X-ray 24 h before)
compound,measurement,setting,value
bevacizumab,incidence of hypertension associated with treatment,[1],26% to 55
"CCCCC(=O)N(Cc1ccc(-c2ccccc2-c2nnn[nH]2)cc1)[C@H](C(=O)O)C(C)C [valsartan, Valsartan]","fraction absorbed into the liver, secreted into the bile and passed into the feces along with unabsorbed valsartan",[2],> 80%
same,bioavailability,[3],23%
same,amount excreted in the urine,[4]; Figure 2D,very small amount
same,cumulative excretion in feces,[4]; group not stated,83%
same,CL,[5]; [8],20 ± 5.87 mL/min/kg
same,Vd,[5]; [8],6.254 ± 2.349 L/kg
same,CL,"[5]; 10 mg/kg by gavage, IR-5 Gy",35.33 ± 18.5 mL/min/kg
same,Vd,"[5]; 10 mg/kg by gavage, IR-5 Gy",14.668 ± 9.456 L/kg
same,prolongation of plasma half-life (t1/2) in the IR group,"[5]; IR-5 Gy vs control, 10 mg/kg by gavage",41%
same,decrease of AUC0–24h in the IR group,[5]; [9],37%
same,decrease of Cmax in the IR group,[5]; [9],52%
same,AUC(0-inf),[5]; [8],8810 ± 2010 ng·h/mL
same,Cmax,[5]; [8],4430 ± 1260 ng/mL
same,AUC(0-t),[5]; [8],8460 ± 1840 ng·h/mL
same,MRT last,[5]; [8],3.84 ± 0.724 h
same,Tmax,"[5]; 10 mg/kg by gavage, Control group, read-out: Tmax",0.25 h
same,Tmax,"[5]; 10 mg/kg by gavage, Figure 1, read-out: time of peak plasma concentration",~0.25 h
same,AUC(0-inf),"[5]; 10 mg/kg by gavage, IR-5 Gy",5470 ± 1790 ng·h/mL
same,Cmax,"[5]; 10 mg/kg by gavage, IR-5 Gy",2130 ± 878 ng/mL
same,AUC(0-t),"[5]; 10 mg/kg by gavage, IR-5 Gy",5270 ± 1830 ng·h/mL
same,MRT last,"[5]; 10 mg/kg by gavage, IR-5 Gy",4.52 ± 1.63 h
same,Tmax,"[5]; 10 mg/kg by gavage, IR-5 Gy, read-out: Tmax",0.222 ± 0.068 h
same,half-life,[5]; Control group,3.57 h
same,half-life,[5]; [10],5.03 h
same,t1/2,[5]; Control group,3.568 ± 0.411 h
same,t1/2,[5]; [10],5.032 ± 2.656 h
same,cumulative fractional bile excretion,"[6]; IR group, 15 h",10.83 % of the dose
same,cumulative fractional bile excretion,"[6]; IR group, 18 h",11.52 % of the dose
same,cumulative fractional bile excretion,"[6]; IR group, 24 h",12.67 % of the dose
same,cumulative fractional bile excretion,"[6]; control group, 15 h",22.89 % of the dose
same,cumulative fractional bile excretion,"[6]; control group, 18 h",26.24 % of the dose
same,cumulative fractional bile excretion,"[6]; control group, 24 h",31.26 % of the dose
same,concentration of valsartan in the intestinal sac at the final time point,[7]; IR group,127 ± 32.94 ng/mL
same,concentration of valsartan in the intestinal sac at the final time point,[7]; control group,205.6 ± 51.72 ng/mL
same,"reduction of valsartan concentration in the intestinal sac, IR vs control",[7]; final time point,38%
